Drawing on PubChem BioAssay (NCI), this text covers TGI and GI50 for 28 compounds.

Structures are written as SMILES.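 Test compounds were applied to cells in 96-well plates for 48 hours at 5 doses. At the GI50, growth is halved. The concentration for full growth arrest is given as TGI.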

Common to all, as to experiment: growth of human tumour cells (NCI), 48 h
The test system of assay [1] is A498 renal.
Assay [2] deals with CAKI-1 renal.
For assay [3], the system named is CCRF-CEM leukemia.
The subject of assay [4] is HL-60(TB) leukemia.
For assay [5], the system named is OVCAR-4 ovarian.
Assay [6] has as its system OVCAR-8 ovarian.
Assay [7] relates to SK-MEL-28 melanoma.
Assay [8] relates to SNB-19 CNS.
Assay [9] concerns TK-10 renal.

For `COc1ccc(C2=NNC(=O)OC2c2ccccc2)cc1` (stereo unspecified), the TGI in assay [1], in assay [2], in assay [3], in assay [4], in assay [5] and in [6] was above 100 µM throughout. Besides, the TGI in assay [7], in assay [8] and in assay [9] was above 100 µM throughout.
Turning to `CN1C2(c3ccccc3)c3c(-c4ccccc4)sc(-c4ccccc4)c3C1(c1ccccc1)C1C(=O)N(c3ccccc3)C(=O)C12` (stereo unspecified), the TGI in assay [1], in assay [2], in assay [3], in assay [4], in assay [5] and in assay [6] was above 100 µM each time. Moreover, the TGI in assay [7], in [8] and in [9] was above 100 µM each time.
Turning to `Cc1cc(N(CCC#N)S(C)(=O)=O)ccc1C=O`, the TGI in assay [1], in assay [2], in assay [3], in assay [4], in [5] and in assay [6] was above 100 µM each time. Also, the TGI in assay [7] and in [8] was above 100 µM each time.
Consider `CC(=O)c1ccc(NC(=O)CSc2nnc(-c3cc(-c4ccc(C)cc4)nc4ccccc34)o2)cc1`, for which the GI50 in assay [1] was 2.3 µM; in assay [3], 4.03 µM; in assay [4], above 100 µM; in [6], 2.28 µM; in assay [7] it was above 100 µM; in [8] it was 3.87 µM. In assay [9], the GI50 is 1.99 µM. In addition, the TGI is 7.5 µM in assay [1]; above 100 µM in assay [3]; above 100 µM in [4]; 4.9 µM in [6]; above 100 µM in assay [7]; 19.3 µM in assay [8]. Moreover, the TGI in [9] was found to be 4.89 µM.
For `Cn1c2c(c3ccccc31)C1CCCCC1C1C(=O)NC(=O)C21` (stereo unspecified), the TGI in [1] was above 100 µM; in assay [3] it was above 100 µM; in assay [4], 63.5 µM; in [5] it was above 100 µM; in assay [6] it was above 100 µM; in assay [7] it was above 100 µM. Also, the TGI in assay [8] and in [9] was above 100 µM throughout.
In the case of `COc1ccc2oc3c4c2c1CCC4CCC3=O` (stereo unspecified), the TGI in [1], in [3], in [4], in assay [5], in [6] and in assay [7] was above 100 µM throughout. Also, the TGI in [8] and in assay [9] was above 100 µM in each case.
In the case of `CC(C)(C)NN=C1C(C)(C)C(=NNC(C)(C)C)C1(C)C`, the TGI in assay [2], in [4], in [5], in [6], in [7] and in assay [8] was above 100 µM in each case. This compound had a TGI in assay [9] above 100 µM.
Take `COC(=O)c1ccc2c(c1)nc(-c1cc3ccccc3[nH]c1=O)n2-c1cc(C(C)(C)C)[nH]n1`: the GI50 was 3.99 µM in [1]; 1.24 µM in assay [2]; 0.853 µM in [3]; 2.17 µM in [4]; above 100 µM in assay [5]; 2 µM in assay [6]. The GI50 in [8] was 7.59 µM; in assay [9], 40 µM. Moreover, the TGI in assay [1] is above 87.7 µM; in [2] it was above 95.1 µM; in [3], above 100 µM; in [4] it was above 100 µM; in [5], above 100 µM; in [6] it was above 100 µM. The TGI is above 100 µM in assay [8] and above 74.7 µM in [9].
On to `COc1cc(/C=C/c2cc(/C=C/c3ccc(O)c(OC)c3)n(-c3c(C)cccc3C)c(=O)n2)ccc1O`, for which the GI50 in assay [1] is 2.4 µM; in assay [2], 0.859 µM; in assay [4], 0.271 µM; in assay [5] it was 0.798 µM; in assay [6] it was 1.51 µM; in [7], 1.16 µM. In addition, the values for the GI50 in [8] and in assay [9] were 2.38 µM and 1.14 µM, respectively. In addition, the TGI is 6.08 µM in [1]; 14.9 µM in assay [2]; 1.11 µM in [4]; 8.41 µM in [5]; 8.16 µM in [6]; 5.1 µM in [7]. Besides, the TGI is 9.19 µM in assay [8] and 4.87 µM in assay [9].
On to `N/N=C1\C(=O)N(C2CCCCC2)C(=O)C1C(=O)NC1CCCCC1` (stereo unspecified), for which the TGI in assay [1] is above 100 µM; in assay [2] it was above 100 µM; in assay [3] it was above 100 µM; in assay [4] it was 89.3 µM; in assay [5] it was above 100 µM; in assay [6], above 100 µM. Further, the TGI in assay [7] and in [8] was above 100 µM throughout.
As for `Cc1ccc(-c2nc(SCC(=O)O)n[nH]2)cc1`, the TGI in assay [1], in [2], in [3], in assay [4], in assay [5] and in [6] was above 100 µM throughout. In addition, the TGI in assay [7], in assay [8] and in assay [9] was above 100 µM each time.
Turning to `CCOC(=O)C(=O)Nc1c(F)cc(F)cc1Br`, the TGI in [1], in assay [2], in [3], in assay [4], in assay [5] and in assay [6] was above 100 µM in each case. For the same compound, the TGI in assay [7], in assay [8] and in assay [9] was above 100 µM each time.
Take `COc1ccc(/C=C2\CCCCC2=O)cc1`: the TGI in assay [1], in assay [2], in assay [3], in [4], in [5] and in assay [6] was above 100 µM each time. The TGI in [7] and in assay [9] was above 100 µM in each case.
Take `CCOc1ccc([C@@H]2[C@@H](Oc3ccccc3)C(=O)N2c2cc(OC)c(OC)c(OC)c2)cc1`: the GI50 was 0.0205 µM in assay [1]; 0.048 µM in assay [3]; 0.0263 µM in [4]; 0.928 µM in assay [5]; 0.0463 µM in assay [6]; 1.89 µM in assay [7]. In addition, the GI50 in assay [8] was 0.289 µM; in assay [9] it was 16 µM. In addition, the TGI in assay [1] is 0.0853 µM; in assay [3], above 100 µM; in assay [4], 0.0691 µM; in assay [5], above 100 µM; in assay [6], above 100 µM; in [7], above 100 µM. For the same compound, the TGI in assay [8] and in assay [9] was above 100 µM each time.
As for `CN(C)c1ccc(N=Cc2c([O-])ccc3ccccc23)cc1.[C-]#[O+].[C-]#[O+].[Ir]`, the GI50 in assay [1] was 22.1 µM; in assay [2], 22 µM; in [3] it was 4.76 µM; in assay [5], 12.2 µM; in [6] it was 28.8 µM; in [8], 24.8 µM. In addition, in [9], the GI50 was 22.5 µM. Besides, the TGI is 51.5 µM in assay [1]; 40.7 µM in assay [2]; above 100 µM in assay [3]; 26.1 µM in assay [5]; above 100 µM in assay [6]; 64.3 µM in assay [8]. In assay [9], this compound showed a TGI of 53.3 µM.
Turning to `O=S(O)CCCCCSSCCCCSSCCCCCS(=O)O`, the TGI in [1], in assay [2], in assay [3], in assay [5], in assay [6] and in [7] was above 100 µM in each case. For the same compound, the TGI in [8] and in [9] was above 100 µM in each case.
As for `CC1C[C@H](OC(N)=O)C(C)CC1=O` (stereo partly specified), the TGI in [1], in assay [2], in assay [3], in [4], in [5] and in assay [6] was above 100 µM each time. Besides, the TGI in assay [8] and in [9] was above 100 µM each time.
Consider `CCOC(=O)N1CCc2cc(OC)c(OC)c3c2C1CC3=O` (stereo unspecified), for which the TGI in assay [1], in assay [2], in assay [3], in [4], in assay [5] and in [6] was above 100 µM in each case. Moreover, the TGI in [8] and in assay [9] was above 100 µM throughout.
For `Cc1ccc(NC(=O)c2cccc([N+](=O)[O-])c2O)c([N+](=O)[O-])c1`, the TGI in assay [1] is 31.5 µM; in assay [2] it was above 100 µM; in [3], above 100 µM; in assay [4] it was above 100 µM; in [5], 27 µM; in assay [6], 30.1 µM. In addition, the TGI came out at 32 µM in [7] and 82.9 µM in [8].
As for `CC1=CC(=O)CCC2(C)C1CC[C@@H]2OC=O` (stereo partly specified), the TGI in assay [2], in assay [3], in [4], in assay [5], in [6] and in assay [7] was above 100 µM throughout. The TGI in assay [8] and in assay [9] was above 100 µM each time.
For `C=C/C=C(\NC(=O)C(Cl)(Cl)Cl)[Si](C)(C)C`, the TGI in assay [1], in [3], in [4], in assay [5], in [6] and in assay [7] was above 100 µM in each case. Moreover, the TGI in assay [8] and in assay [9] was above 100 µM throughout.
On to `COC1(OC)CC2C=C(S(=O)(=O)c3ccccc3)C1N(Cc1ccccc1)C2=O` (stereo unspecified), for which the TGI in assay [1] is 57.1 µM; in assay [3], 90.9 µM; in [4] it was 50.5 µM; in assay [5], above 100 µM; in assay [6], 64.7 µM; in assay [7], above 100 µM. Moreover, the values for the TGI in assay [8] and in assay [9] were above 100 µM and 66.4 µM, respectively.
For `COc1ccc(/C(=N/NC(=O)NN)C(c2ccc(OC)cc2)C2(O)CNc3c(Cl)cc(Cl)cc32)cc1` (stereo unspecified), the TGI in assay [1], in assay [3], in assay [4], in assay [5], in [6] and in assay [7] was above 100 µM in each case. For the same compound, the TGI in assay [8] and in assay [9] was above 100 µM throughout.
Turning to `CCn1cc(/C=C/C(C)c2cn(CC)c(=O)[nH]c2=O)c(=O)[nH]c1=O` (stereo unspecified), the TGI in [2], in assay [3], in assay [4], in [5], in [6] and in [7] was above 100 µM throughout. The TGI in assay [8] and in [9] was above 100 µM each time.
`CCCN(CCCC(NC(C)=O)C(=O)NCc1ccccc1)C(=O)NC` (stereo unspecified): the TGI in assay [1], in [2], in assay [3], in assay [5], in assay [6] and in assay [7] was above 100 µM in each case. Further, the TGI in [8] and in [9] was above 100 µM each time.
Consider `N#CC(C(=O)/C(=N\Nc1nc(=S)[nH]n1N)C(C#N)c1ccc(Cl)cc1)c1ccc(Cl)cc1` (stereo unspecified), for which the TGI in assay [1], in [2], in [5], in assay [6], in assay [7] and in [8] was above 100 µM throughout. For the same compound, in assay [9], the TGI is above 100 µM.
In the case of `COc1ccc(C(O)/C(=N\NC(N)=S)c2nc3ccc([N+](=O)[O-])cc3[nH]c2=O)cc1OC` (stereo unspecified), the TGI in assay [1], in [3], in assay [4], in assay [5], in assay [6] and in [7] was above 100 µM throughout. In assay [9], this compound showed a TGI above 100 µM.
In the case of `Cc1cc2c(=O)n(-c3ccc(F)cc3)c(C)nc2c(C(=O)O)c1C`, the TGI in assay [1], in assay [2], in assay [3], in assay [4], in assay [5] and in assay [6] was above 100 µM each time. In addition, the TGI in assay [7] and in [9] was above 100 µM throughout.
